Source: US20240294498A1, “FACTOR XIIA INHIBITORS” (Lunac Therapeutics Ltd, priority 2021, published 2024)
pKi: −log10 of the molar value.

Legend:
Assay type in all cases: biochemical
FXIIa = target: T1, FXIIa (Homo sapiens, UniProt P00748); test: Determination of Factor XIIa inhibition (chromogenic substrate S-2302); conditions: human FXIIa alpha, Ki category
T1 construct: FXIIa alpha
T1 sequence (P00748 373-615 limits assumed): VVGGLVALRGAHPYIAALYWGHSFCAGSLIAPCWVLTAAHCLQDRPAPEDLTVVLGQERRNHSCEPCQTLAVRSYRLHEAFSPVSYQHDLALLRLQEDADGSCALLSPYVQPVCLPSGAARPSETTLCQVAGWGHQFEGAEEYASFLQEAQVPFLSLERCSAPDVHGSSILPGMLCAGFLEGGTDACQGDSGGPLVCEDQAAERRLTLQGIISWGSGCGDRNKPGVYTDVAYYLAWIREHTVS
T1 sequence (P00748 20-372 partner limits assumed): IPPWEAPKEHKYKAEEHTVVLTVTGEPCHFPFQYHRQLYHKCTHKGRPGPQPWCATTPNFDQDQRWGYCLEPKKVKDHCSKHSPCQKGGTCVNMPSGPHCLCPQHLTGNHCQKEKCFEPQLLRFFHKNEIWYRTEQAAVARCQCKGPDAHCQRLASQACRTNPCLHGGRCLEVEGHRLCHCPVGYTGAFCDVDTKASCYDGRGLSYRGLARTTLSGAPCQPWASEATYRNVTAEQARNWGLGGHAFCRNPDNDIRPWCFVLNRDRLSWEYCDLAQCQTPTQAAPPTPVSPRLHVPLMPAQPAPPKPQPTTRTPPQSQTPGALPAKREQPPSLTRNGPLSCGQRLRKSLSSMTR
Outline: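 Compound preincubated with 10 nM FXIIa for 10 min at 37° C in 50 mM Tris, 137 mM NaCl, pH 7.4, 5% DMSO, top concentration 500 μM; S-2302 added at Km. pNA release followed at 405 nm for 3 h; IC50 from initial rates, converted to Ki via Ki = IC50/(1+[S]/Km).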

FXa = FXa (Homo sapiens, UniProt P00742); test: Determination of selectivity: FXa inhibition (chromogenic substrate S2765); conditions: fold selectivity for FXIIa over FXa (human); category
FXa, sequence (P00742 235-488 limits assumed): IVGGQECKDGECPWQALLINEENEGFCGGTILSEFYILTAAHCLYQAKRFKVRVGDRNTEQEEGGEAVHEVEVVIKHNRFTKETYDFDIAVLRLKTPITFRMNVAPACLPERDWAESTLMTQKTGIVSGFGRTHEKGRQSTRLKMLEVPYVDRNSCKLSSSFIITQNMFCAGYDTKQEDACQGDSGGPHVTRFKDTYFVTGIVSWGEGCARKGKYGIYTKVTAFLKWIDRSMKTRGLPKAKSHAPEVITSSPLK
FXa, sequence (P00742 41-179 partner limits assumed): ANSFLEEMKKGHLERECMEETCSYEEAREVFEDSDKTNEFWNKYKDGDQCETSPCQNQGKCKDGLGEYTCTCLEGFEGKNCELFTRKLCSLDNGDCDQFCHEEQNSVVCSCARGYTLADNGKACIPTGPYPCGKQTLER
Outline: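 FXa (5 nM) preincubated with increasing compound (top 500 μM) for 10 mins at 37° C in 50 mM Tris, 137 mM NaCl pH 7.4, 5% DMSO, then S2765 added at its KM. Absorbance at 405 nm followed kinetically for 3 hours; IC50 from initial rates, converted to Ki by Cheng-Prusoff.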

thrombin = target: T2, thrombin (Homo sapiens, UniProt P00734); test: Determination of selectivity: thrombin inhibition (chromogenic substrate GPR); conditions: fold selectivity for FXIIa over thrombin (human); category
T2 construct: FXa (5 nM) and thrombin (5 nM)
Outline: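 Thrombin (5 nM) preincubated with increasing compound concentrations (top 500 μM, 5% DMSO) 10 min at 37 °C in 50 mM Tris, 137 mM NaCl pH 7.4, then GPR chromogenic substrate at its KM. pNA release read kinetically at 405 nm for 3 h at 37 °C. IC50 from initial rates, converted to Ki via Cheng–Prusoff.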

| pKi (FXIIa) | FXa (human)/FXIIa alpha (human) (FXa) | SMILES | Thrombin (human)/FXIIa alpha (human) (thrombin) |
| --- | --- | --- | --- |
| > 6.70 | ∘∘∘ | COc1ccc(C[C@@H]2C[C@@H](C(=O)NCc3ccc4c(c3)nnn4C)N(C(=O)[C@@H]3NCCC[C@@H]3C(=O)N3CCCC3)C2)cc1 [Example M04490] | +++ (fold selectivity values greater than 100) |
| 6.10 to 6.70 | ∘∘∘ | Cn1nnc2cc(CNC(=O)[C@@H]3C[C@@H](CC4CCC5(CC4)CC5)CN3C(=O)[C@@H]3NCCC[C@@H]3C(=O)N3CCCC3)ccc21 [Compound M06003] | +++ (fold selectivity values greater than 100) |
| 6.10 to 6.70 | ∘∘∘ | Cc1ccc(C[C@@H]2C[C@@H](C(=O)NCc3ccc4c(cnn4C)c3)N(C(=O)[C@@H]3NCCC[C@@H]3C(=O)N(C)C)C2)cc1 [Example M05751, (2R,3S)-N,N-dimethyl-2-((2S,4R)-2-(((1-methyl-1H-indazol-5-yl)methyl)carbamoyl)-4-(4-methylbenzyl)pyrrlidine-1-carbonyl)piperidine-3-carboxamide] | +++ (fold selectivity values greater than 100) |
| 6.10 to 6.70 | ∘∘∘ | Cc1ccc(C[C@@H]2C[C@@H](C(=O)NCc3ccc4c(cnn4C)c3)N(C(=O)[C@@H]3NCCC[C@@H]3C(=O)N3CC[C@@H](N(C)C)C3)C2)cc1 [Example M06010, (2S,4R)-1-((2R,3S)-3-((R)-3-(dimethylamino)pyrrolidine-1-carbonyl)piperidine-2-carbonyl)-N-((1-methyl-1H-indazol-5-yl)methyl)-4-(4-methylbenzyl)pyrrolidine-2-carboxamide] | +++ (fold selectivity values greater than 100) |
| > 6.70 | ∘∘∘ | CO[C@H]1CCN(C(=O)[C@H]2CCCN[C@H]2C(=O)N2C[C@H](Cc3ccc(C)cc3)C[C@H]2C(=O)NCc2ccc3c(cnn3C)c2)C1 [Example M05837, (2S,4R)-1-((2R,3S)-3-((S)-3-methoxypyrrolidine-1-carbonyl)piperidine-2-carbonyl)-N-((1-methyl-1H-indazol-5-yl)methyl)-4-(4-methylbenzyl)pyrrolidine-2-carboxamide] | +++ (fold selectivity values greater than 100) |

Further lines, the compound ahead of its results:

| SMILES | pKi (FXIIa) | FXa (human)/FXIIa alpha (human) (FXa) | Thrombin (human)/FXIIa alpha (human) (thrombin) |
| --- | --- | --- | --- |
| Cc1ccc(C[C@@H]2C[C@@H](C(=O)NCc3ccc4c(cnn4C)c3)N(C(=O)[C@@H]3NCCC[C@@H]3C(=O)N(C)CCN(C)C3CC3)C2)cc1 [Example M06049, (2R,3S)-N-[2-[cyclopropyl(methyl)amino]ethyl]N-methyl-2-[(2S,4R)-2-[(1-methylindazol-5-yl)methylcarbamoyl]-4-(p-tolylmethyl)pyrrolidine-1-carbonyl]piperidine-3-carboxamide] | > 6.70 | ∘∘∘ | +++ (fold selectivity values greater than 100) |
| Cc1ccc(C[C@@H]2C[C@@H](C(=O)NCc3ccc4c(cnn4C)c3)N(C(=O)[C@@H]3NCCC[C@@H]3C(=O)N(C)C3CCN(CCF)CC3)C2)cc1 [Example M06083, (2R,3S)—N-[1-(2-fluoroethyl)-4-piperidyl]-N-methyl-2-[(2S,4R)-2-[(1-methylindazol-5-yl)methylcarbamoyl]-4-(p-tolylmethyl)pyrrolidine-1-carbonyl]piperidine-3-carboxamide] | > 6.70 | ∘∘∘ | +++ (fold selectivity values greater than 100) |
| CO[C@H]1CCN(CCN(C)C(=O)[C@H]2CCCN[C@H]2C(=O)N2C[C@H](Cc3ccc(C)cc3)C[C@H]2C(=O)NCc2ccc3c(cnn3C)c2)C1 [Example M06128, (2R,3S)-N-(2-((S)-3-methoxypyrrolidin-1-yl)ethyl)-N-methyl-2-((2S,4R)-2-(((1-methyl-1H-indazol-5-yl)methyl)carbamoyl)-4-(4-methylbenzyl)pyrrolidine-1-carbonyl)piperidine-3-carboxamide] | > 6.70 | ∘∘∘ | +++ (fold selectivity values greater than 100) |
| Cc1ccc(C[C@@H]2C[C@@H](C(=O)NCc3ccc4c(cnn4C)c3)N(C(=O)[C@@H]3NCCC[C@@H]3C(=O)N(CCN(C)C)C3CC3)C2)cc1 [Example M06048, (2R,3S)-N-cyclopropyl-N-(2-(dimethylamino)ethyl)-2-((2S,4R)-2-(((1-methyl-1H-indazol-5-yl)methyl)carbamoyl)-4-(4-methylbenzyl)pyrrolidine-1-carbonyl)piperidine-3-carboxamide] | > 6.70 | ∘∘∘ | +++ (fold selectivity values greater than 100) |
| Cc1ccc(C[C@@H]2C[C@@H](C(=O)NCc3ccc4c(cnn4C)c3)N(C(=O)[C@@H]3NCCC[C@@H]3C(=O)N(C)C3CC3)C2)cc1 [Example M05752, (2R,3S)-N-cyclopropyl-N-methyl-2-((2S,4R)-2-(((1-methyl-1H-indazol-5-yl)methyl)carbamoyl)-4-(4-methylbenyl)pyrrolidine-1-carbonyl)piperidine-3-carboxamide] | > 6.70 | ∘∘∘ | ++ (a fold selectivity value of 10 to 100) |
| O=C(NCc1cc2cnccc2[nH]1)[C@@H]1C[C@H](C(F)(F)F)CN1C(=O)[C@@H]1NCCC[C@@H]1C(=O)N1CCCC1 [Example M05720, (2S,4S)-N-((1H-pyrrolo[3,2-c]pyridin-2-yl)methyl)-1-((2R,3S)-3-(pyrrolidine-1-carbonyl)piperidine-2-carbonyl)-4-(trifluoromethyl)pyrrolidine-2-carboxamide] | > 6.70 | ∘∘∘ | +++ (fold selectivity values greater than 100) |
| Cc1ccc(C[C@@H]2C[C@@H](C(=O)NCc3ccc4c(cnn4C)c3)N(C(=O)[C@@H]3NCCC[C@@H]3C(=O)N3CCNCC3)C2)cc1 [Example M05754, (2S,4R)-N-((1-methyl-1H-indazol-5-yl)methyl)-4-(4-methylbenzyl)-1-((2R,3S)-3-(piperazine-1-carbonyl)piperidine-2-carbonyl)pyrrolidine-2-carboxamide] | 6.10 to 6.70 | ∘∘∘ | +++ (fold selectivity values greater than 100) |
| Cc1ccc(C[C@@H]2C[C@@H](C(=O)NCc3ccc4c(cnn4C)c3)N(C(=O)[C@@H]3NCCC[C@@H]3C(=O)N3CCC4(CC4)C3)C2)cc1 [Example M05766, (2S,4R)-1-[(2R,3S)-3-(5-azaspiro[2.4]heptane-5-carbonyl)piperidine-2-carbonyl]-N-[(1-methylindazol-5-yl)methyl]-4-(p-tolylmethyl)pyrrolidine-2-carboxamide] | > 6.70 | ∘∘∘ | +++ (fold selectivity values greater than 100) |
| COc1ccc(C[C@@H]2C[C@@H](C(=O)NCc3ccc4c(cnn4C)c3)N(C(=O)[C@@H]3NCCC[C@@H]3C(=O)N3CCCC3)C2)cn1 [Example M05875, (2S,4R)-4-((6-methoxypyridin-3-yl)methyl)-N-((1-methyl-1H-indazol-5-yl)methyl)-1-((2R,3S)-3-(pyrrolidine-1-carbonyl)piperidine-2-carbonyl)pyrrolidine-2-carboxamide] | 6.10 to 6.70 | ∘∘∘ | +++ (fold selectivity values greater than 100) |
| COc1cc(CNC(=O)[C@@H]2C[C@@H](Cc3ccc(C)cc3)CN2C(=O)[C@@H]2NCCC[C@@H]2C(=O)N2CCCC2)cc2cnn(C)c12 [Example M05799, (2S,4R)-N-((7-methoxy-1-methyl-1H-indazol-5-yl)methyl)-4-(4-methylbenzyl)-1-((2R,3S)-3-(pyrrolidine-1-carbonyl)piperidine-2-carbonyl)pyrrolidine-2-carboxamide] | > 6.70 | ∘∘∘ | ++ (a fold selectivity value of 10 to 100) |
